What was measured:
VX2 adenocarcinomas = test: Tumor localization scans in rabbits bearing VX2 adenocarcinomas; assay type: in vivo, white rabbits; settings: for concentration of radioactivity in kidneys and bladder: two hours after injection
Experimental: Solutions of the indium-111 chelates of BLEDTA (A) or BLEDTA (B) were injected into the ear veins of white rabbits bearing type VX2 adenocarcinomas implanted under the right foreleg and the right hind leg. Two hours after injection, and again 18 to 24 hours after injection, the rabbits were scanned with a gamma camera, which provides a two-dimensionaldisplay of the distribution of radioactivity in the body. Scans were obtained 24 hours after injection of 700 μCi of ^111 In-BLEDTA(A).

KHJJ tumor = test: Organ distribution and tumor uptake of 111In-BLEDTA(B) in BALB/c mice with KHJJ tumor (Table II); assay type: in vivo
Experimental: The two bleomycin analogs-BLEDTA(A) and (B)-were rapidly and specifically labelled with ^111 In^3.spsp.+. A small aliquot of a dilute solution (10^-4 M) of BLEDTA(A) and (B) respectively in 0.1 M citrate (pH 2.8) was added to a container of dry ^111 InCl3, and incubated for 5 minutes at room temperature. The solutions were then diluted with normal saline solution for injection.
Following the injection of ^111 In-BLEDTA(B) into the tail veins of specially prepared BALB/c mice, the organ distribution and tumor uptake of radioactivity were determined. A tumor line, "KHJJ", derived from a primary mammary carcinoma arising in a mouse and maintained for over 100 transplant generations was used for the assay. Transplantation was by subcutaneous implantation of tumor fragments about 1 mm in diameter into the flank. The studies were carried out after 14 days of growth, when the tumor had reached a size of about 1 cm^3. On histological examination,the tumor has a "carcinoma-like" pattern with a predominance of islands of round or polygonal malignant cells with little stroma and a generally undifferentiated appearance. After transplantation, the tumor takes in almost all animals and grows without metastasizing or killing the mice within 14 days.
[…] After 18 hours, each mouse was anesthetized with ether, and blood was collected from the jugular vein into two preweighed capillary tubes. The mouse then was killed instantly by cervical dislocation and the major organs excised. Samples of muscle, skin, bone (left femur plus marrow), tail, and tumor also were taken. All tissue samples were weighed immediately after excision and counted in a well-type scintillation counter.

[1] = 24 hours after injection of 700 μCi
[2] = Table II, BLEDTA B 18 hours after tail vein injection

Compound | visualization of small tumor 1 cm in diameter under right foreleg (VX2 adenocarcinomas; [1]) | visualization of tumor 2 to 3 cm in diameter under right hind leg (VX2 adenocarcinomas; [1]) | concentration of radioactivity in kidneys and bladder (VX2 adenocarcinomas) | uptake of radioactivity in liver and bone (KHJJ tumor; 18 hours) | Distribution and uptake: Blood (KHJJ tumor; [2]) | Distribution and uptake: Bone (KHJJ tumor; [2]) | Distribution and uptake: Kidneys (KHJJ tumor; [2]) | Distribution and uptake: Liver (KHJJ tumor; [2]) | Distribution and uptake: Lungs (KHJJ tumor; [2]) | Distribution and uptake: Muscle (KHJJ tumor; [2]) | Distribution and uptake: Skin (KHJJ tumor; [2]) | Distribution and uptake: Spleen (KHJJ tumor; [2]) | Distribution and uptake: Tumor (KHJJ tumor; Table II, KHJJ tumor, BLEDTA B 18 hours after tail vein injection) | tumor/organ radioactivity concentration ratios (KHJJ tumor; all organs examined except the kidneys)
Cc1c(N)nc(C(CC(N)=O)NCC(N)C(N)=O)nc1C(=O)NC(C(=O)NC(C)C(O)C(C)C(=O)NC(C(=O)NCCc1nc(-c2nc(C(=O)NCCC[S+](C)CC(=O)Nc3ccc(C(CN(CC(=O)O)CC(=O)O)N(CC(=O)O)CC(=O)O)cc3)cs2)cs1)C(C)O)C(OC1OC(CO)C(O)C(O)C1OC1OC(CO)C(O)C(OC(N)=O)C1O)c1cnc[nH]1 (stereo not drawn) [BLEDTA(A)] | clearly visualized | strikingly evident | high concentrations of radioactivity in the kidneys and bladder |  |  |  |  |  |  |  |  |  |  | 
Cc1c(N)nc(C(CC(N)=O)NCC(N)C(N)=O)nc1C(=O)NC(C(=O)NC(C)C(O)C(C)C(=O)NC(C(=O)NCCc1nc(-c2nc(C(=O)NCCCSCC(=O)Nc3ccc(C(CN(CC(=O)O)CC(=O)O)N(CC(=O)O)CC(=O)O)cc3)cs2)cs1)C(C)O)C(OC1OC(CO)C(O)C(O)C1OC1OC(CO)C(O)C(OC(N)=O)C1O)c1cnc[nH]1 (stereo not drawn) [BLEDTA(B)] |  |  | high concentrations of radioactivity in the kidneys and bladder | quite low | .205 ± .066 % of injected radioactivity pe | .188 ± .080 % of injected radioactivity pe | 1.023 ± .333 % of injected radioactivity pe | .263 ± .068 % of injected radioactivity pe | .254 ± .067 % of injected radioactivity pe | .063 ± .015 % of injected radioactivity pe | .166 ± .052 % of injected radioactivity pe | .327 ± .088 % of injected radioactivity pe | .393 ± .015 % of injected radioactivity pe | Favorable
